Test results reported in PubChem BioAssay (NCI).
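All cell lines were grown in 96-well plates and treated with compound for 48 hours. GI50 = concentration required for 50% inhibition of growth. TGI is the concentration that stops growth completely.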

Tests used:
Test in all cases: NCI tumour cell line growth inhibition, 48 h
786-0 renal = test system: 786-0 renal
OVCAR-4 ovarian = test system: OVCAR-4 ovarian
U251 CNS = test system: U251 CNS
EKVX NSCLC = test system: EKVX NSCLC
SN12C renal = test system: SN12C renal
PC-3 prostate = test system: PC-3 prostate
HCC-2998 colon = test system: HCC-2998 colon
UACC-62 melanoma = test system: UACC-62 melanoma
SK-OV-3 ovarian = test system: SK-OV-3 ovarian
HL-60(TB) leukemia = test system: HL-60(TB) leukemia

Cn1c2ccccc2c2c(Nc3ccccc3)c3ccccc3nc21
GI50 (786-0 renal): 17.3 µM | TGI (786-0 renal): 41.8 µM | GI50 (OVCAR-4 ovarian): 21.1 µM | TGI (OVCAR-4 ovarian): > 100 µM | GI50 (U251 CNS): 22.7 µM | TGI (U251 CNS): 71.8 µM | GI50 (EKVX NSCLC): 14.3 µM | TGI (EKVX NSCLC): 51.1 µM | GI50 (SN12C renal): 16.5 µM | TGI (SN12C renal): 47.3 µM | GI50 (PC-3 prostate): 11.7 µM | TGI (PC-3 prostate): 48.1 µM | GI50 (HCC-2998 colon): 40.9 µM | TGI (HCC-2998 colon): > 100 µM | GI50 (UACC-62 melanoma): 4.56 µM | TGI (UACC-62 melanoma): 18.6 µM | GI50 (SK-OV-3 ovarian): 41 µM | TGI (SK-OV-3 ovarian): > 100 µM

O=S1(=O)c2ccccc2NC(c2ccc3ccccc3c2)CC1c1ccccc1F (stereo not drawn)
TGI (HL-60(TB) leukemia): > 100 µM | TGI (786-0 renal): > 100 µM | TGI (OVCAR-4 ovarian): > 100 µM | TGI (EKVX NSCLC): > 100 µM | TGI (SN12C renal): > 100 µM | TGI (HCC-2998 colon): > 100 µM | TGI (UACC-62 melanoma): > 100 µM | TGI (SK-OV-3 ovarian): > 100 µM

O=CC[C@H]1C(=O)C[C@@H]2CCC[C@@H]21
TGI (HL-60(TB) leukemia): > 100 µM | TGI (786-0 renal): > 100 µM | TGI (OVCAR-4 ovarian): > 100 µM | TGI (U251 CNS): > 100 µM | TGI (EKVX NSCLC): > 100 µM | TGI (SN12C renal): > 100 µM | TGI (HCC-2998 colon): > 100 µM | TGI (UACC-62 melanoma): > 100 µM | TGI (SK-OV-3 ovarian): > 100 µM

Clc1cc2nsnc2c(Cl)n1
TGI (HL-60(TB) leukemia): 36.2 µM | TGI (786-0 renal): 31.2 µM | TGI (OVCAR-4 ovarian): 31.3 µM | TGI (U251 CNS): 40.1 µM | TGI (EKVX NSCLC): > 100 µM | TGI (HCC-2998 colon): > 100 µM | TGI (UACC-62 melanoma): > 100 µM | TGI (SK-OV-3 ovarian): > 100 µM

O=C1/C(=C/c2ccccc2)CN(C(=O)C(Cl)(Cl)Cl)C/C1=C\c1ccccc1
TGI (HL-60(TB) leukemia): 0.524 µM | TGI (786-0 renal): 9.42 µM | TGI (OVCAR-4 ovarian): 3.42 µM | TGI (U251 CNS): 3 µM | TGI (SN12C renal): 3.12 µM | TGI (UACC-62 melanoma): 3.43 µM

CC1(c2ccc(F)cc2)C(C#N)C(=O)NC(=O)C1C#N (stereo not drawn)
TGI (HL-60(TB) leukemia): > 100 µM | TGI (786-0 renal): > 100 µM | TGI (OVCAR-4 ovarian): > 100 µM | TGI (EKVX NSCLC): > 100 µM | TGI (SN12C renal): > 100 µM | TGI (HCC-2998 colon): > 100 µM | TGI (UACC-62 melanoma): > 100 µM | TGI (SK-OV-3 ovarian): > 100 µM

CNS(=O)(=O)NNS(=O)(=O)c1ccc2ccccc2c1
TGI (HL-60(TB) leukemia): > 100 µM | TGI (786-0 renal): > 100 µM | TGI (OVCAR-4 ovarian): > 100 µM | TGI (U251 CNS): > 100 µM | TGI (EKVX NSCLC): > 100 µM | TGI (SN12C renal): > 100 µM | TGI (HCC-2998 colon): > 100 µM | TGI (UACC-62 melanoma): > 100 µM | TGI (SK-OV-3 ovarian): > 100 µM

CCOC(=O)C1=C(C)NC(=S)NC1c1ccccc1 (stereo not drawn)
TGI (HL-60(TB) leukemia): > 100 µM | TGI (786-0 renal): > 100 µM | TGI (OVCAR-4 ovarian): > 100 µM | TGI (U251 CNS): > 56.2 µM | TGI (EKVX NSCLC): > 100 µM | TGI (SN12C renal): > 100 µM | TGI (HCC-2998 colon): > 100 µM | TGI (UACC-62 melanoma): > 100 µM | TGI (SK-OV-3 ovarian): > 100 µM

O=C(N/C(=C\c1ccc(/C=C(\NC(=O)c2ccccc2)c2nc3cc([N+](=O)[O-])ccc3[nH]2)cc1)c1nc2cc([N+](=O)[O-])ccc2[nH]1)c1ccccc1
TGI (786-0 renal): > 100 µM | TGI (OVCAR-4 ovarian): > 100 µM | TGI (U251 CNS): > 100 µM | TGI (EKVX NSCLC): > 100 µM | TGI (SN12C renal): > 100 µM | TGI (HCC-2998 colon): 77.2 µM | TGI (UACC-62 melanoma): > 100 µM | TGI (SK-OV-3 ovarian): > 100 µM

O=C(/C=C/c1ccccc1)NC1C=Nc2ccc(Cl)cc2NC1=O (stereo not drawn)
TGI (HL-60(TB) leukemia): 30.3 µM | TGI (786-0 renal): > 100 µM | TGI (OVCAR-4 ovarian): > 100 µM | TGI (U251 CNS): 79.9 µM | TGI (EKVX NSCLC): > 100 µM | TGI (SN12C renal): > 100 µM | TGI (HCC-2998 colon): 65.5 µM | TGI (UACC-62 melanoma): > 100 µM | TGI (SK-OV-3 ovarian): > 100 µM

Cc1ccc(NC2=C(Cl)C(=O)N(Cc3ccccc3)C2=O)cc1O
GI50 (HL-60(TB) leukemia): 6.45 µM | TGI (HL-60(TB) leukemia): > 100 µM | GI50 (786-0 renal): 22.6 µM | TGI (786-0 renal): > 100 µM | GI50 (OVCAR-4 ovarian): 79.3 µM | TGI (OVCAR-4 ovarian): > 100 µM | GI50 (U251 CNS): 18.7 µM | TGI (U251 CNS): 84.6 µM | GI50 (EKVX NSCLC): 17.8 µM | TGI (EKVX NSCLC): 52.6 µM | GI50 (SN12C renal): 25.6 µM | TGI (SN12C renal): 93.8 µM | GI50 (PC-3 prostate): 32.5 µM | TGI (PC-3 prostate): > 100 µM | GI50 (UACC-62 melanoma): 24.4 µM | TGI (UACC-62 melanoma): > 100 µM | GI50 (SK-OV-3 ovarian): 55.2 µM | TGI (SK-OV-3 ovarian): > 100 µM

CC1=C(C(=O)Nc2ccc(Cl)c(Cl)c2)C(c2cccc(Oc3ccccc3)c2)NC(=S)N1 (stereo not drawn)
GI50 (HL-60(TB) leukemia): 15.9 µM | TGI (HL-60(TB) leukemia): > 50 µM | GI50 (786-0 renal): 8.29 µM | TGI (786-0 renal): 17.4 µM | GI50 (OVCAR-4 ovarian): 7.56 µM | TGI (OVCAR-4 ovarian): 16.5 µM | GI50 (U251 CNS): 7.84 µM | TGI (U251 CNS): 14.8 µM | GI50 (EKVX NSCLC): 7.55 µM | TGI (EKVX NSCLC): 15 µM | GI50 (SN12C renal): 8.75 µM | TGI (SN12C renal): 15.9 µM | GI50 (PC-3 prostate): 9.71 µM | TGI (PC-3 prostate): 29.1 µM | GI50 (UACC-62 melanoma): 7.81 µM | TGI (UACC-62 melanoma): 14.6 µM | GI50 (SK-OV-3 ovarian): 8.1 µM | TGI (SK-OV-3 ovarian): 16.3 µM

OCc1ccc(N2CCC2c2ccc(F)cc2)cc1Cl (stereo not drawn)
GI50 (HL-60(TB) leukemia): 18.5 µM | TGI (HL-60(TB) leukemia): 51.8 µM | GI50 (786-0 renal): 22.6 µM | TGI (786-0 renal): > 61.5 µM | GI50 (OVCAR-4 ovarian): 0.925 µM | TGI (OVCAR-4 ovarian): > 59.3 µM | GI50 (U251 CNS): 3.92 µM | TGI (U251 CNS): > 46.5 µM | GI50 (SN12C renal): 18.2 µM | TGI (SN12C renal): > 63.8 µM | GI50 (PC-3 prostate): 21 µM | TGI (PC-3 prostate): 67.1 µM | GI50 (HCC-2998 colon): 17.5 µM | TGI (HCC-2998 colon): 46 µM | GI50 (UACC-62 melanoma): 0.397 µM | TGI (UACC-62 melanoma): 6.95 µM | GI50 (SK-OV-3 ovarian): 20.5 µM | TGI (SK-OV-3 ovarian): > 89.1 µM

COc1cc2c(cc1OC)-c1c3cc(O)ccc3nn[n+]1CC2
TGI (HL-60(TB) leukemia): > 100 µM | TGI (786-0 renal): > 100 µM | TGI (OVCAR-4 ovarian): > 100 µM | TGI (U251 CNS): > 100 µM | TGI (EKVX NSCLC): > 100 µM | TGI (SN12C renal): > 100 µM | TGI (HCC-2998 colon): > 100 µM | TGI (UACC-62 melanoma): > 100 µM | TGI (SK-OV-3 ovarian): > 100 µM

CC(=O)NNc1nc(C)c(C(=O)NNC(=O)C(=O)Nc2ccc(Cl)cc2)s1
TGI (HL-60(TB) leukemia): > 100 µM | TGI (786-0 renal): > 100 µM | TGI (OVCAR-4 ovarian): > 100 µM | TGI (U251 CNS): > 100 µM | TGI (EKVX NSCLC): > 100 µM | TGI (SN12C renal): > 100 µM | TGI (HCC-2998 colon): > 100 µM | TGI (UACC-62 melanoma): > 100 µM | TGI (SK-OV-3 ovarian): > 100 µM

COc1ccc(-c2nc3sccn3c2/C(N)=N/C(=N)N)cc1OC
GI50 (786-0 renal): 32.9 µM | TGI (786-0 renal): > 100 µM | GI50 (OVCAR-4 ovarian): > 100 µM | TGI (OVCAR-4 ovarian): > 100 µM | GI50 (U251 CNS): 34.1 µM | TGI (U251 CNS): > 100 µM | GI50 (EKVX NSCLC): 66.4 µM | TGI (EKVX NSCLC): > 100 µM | GI50 (SN12C renal): 27.2 µM | TGI (SN12C renal): > 100 µM | GI50 (PC-3 prostate): 34.3 µM | TGI (PC-3 prostate): > 100 µM | GI50 (HCC-2998 colon): 43.1 µM | TGI (HCC-2998 colon): > 100 µM | GI50 (UACC-62 melanoma): 66 µM | TGI (UACC-62 melanoma): > 100 µM | GI50 (SK-OV-3 ovarian): > 100 µM | TGI (SK-OV-3 ovarian): > 100 µM

COc1cc(CNc2cnc3cc(N)cc(N)c3n2)cc(OC)c1
GI50 (HL-60(TB) leukemia): 32.9 µM | TGI (HL-60(TB) leukemia): > 100 µM | GI50 (786-0 renal): 15.4 µM | TGI (786-0 renal): 30 µM | GI50 (EKVX NSCLC): 27.3 µM | TGI (EKVX NSCLC): 67.4 µM | GI50 (SN12C renal): 15.2 µM | TGI (SN12C renal): 33.3 µM | GI50 (PC-3 prostate): 15.1 µM | TGI (PC-3 prostate): 35.2 µM | GI50 (HCC-2998 colon): 11.7 µM | TGI (HCC-2998 colon): 25 µM

CCCCCCCCCCCOc1ccc(C(=O)C(=O)c2ccc(OCCCCCCCCCCC)c(OCCCCCCCCCCC)c2)cc1OCCCCCCCCCCC
TGI (HL-60(TB) leukemia): > 100 µM | TGI (786-0 renal): > 100 µM | TGI (OVCAR-4 ovarian): > 100 µM | TGI (U251 CNS): > 100 µM | TGI (EKVX NSCLC): > 100 µM | TGI (SN12C renal): > 100 µM | TGI (HCC-2998 colon): > 100 µM | TGI (UACC-62 melanoma): > 100 µM | TGI (SK-OV-3 ovarian): > 100 µM
